In patent US9084770B2, “Modulation of insulin like growth factor I receptor expression in cancer” (Antisense Therapeutics, Ltd., priority 2008, dated 2015):
Marks after values point to notes of the source that are not given here.

How the values were obtained:
[1] = tested on: IGF-IR protein (IGF-IRB subunit); test: IGF-IR protein in transfected LNCaP and PC3 cells, immunoblot; format: cell-based, human
Procedure: (§1) Established methods were used to test the activity of IGF-IR antisense oligonucleotide on LNCaP and PC-3 cell growth (crystal violet assay) and apoptosis (FACS). Dose- and sequence-specific suppression of IGF-IR mRNA and protein expression in ATL1101-treated LNCaP and PC3 PC cell lines in vitro were observed by QT-PCR and western blotting. Effects of the IGF-IR antisense oligonucleotide on various putative targets, including IGF-IR and downstream targets were evaluated using western blotting.
(§2) FIGS. 1B(i)-1B(ii) show sequence-specific and dose-dependent inhibition of IGF-IR protein by IGF-IR antisense oligonucleotide in LNCaP (FIG. 1B (i)) and PC-3 (FIG. […]) cells. […] Two days after the second transfection, whole cell detergent lysates were prepared and 30 μg of total protein was subjected to SDS-PAGE and immunoblotted for IGF-IRB subunit, IR-BB subunit and vinculin expression. Oligofectamine, oligofectamine treated cells only. In LNCaP cells, IGF-IR expression was >80% suppressed by 10 nM ATL1101 and was undetectable at 100 nM ATL1101. In PC3 cells, IGF-IR expression was suppressed ˜50% at 10 nM ATL1101, >80% at 50 nM ATL1101 and >90% at 200 nM. […] Vinculin expression is shown as a loading control.

[2] = tested on: insulin receptor-B (IR-B); test: Insulin receptor-B protein in transfected LNCaP and PC3 cells, immunoblot; format: cell-based, human; details: highest ATL1101 concentration tested for each cell line (LNCaP, PC3)
Procedure: as §2

LNCaP cells = test: LNCaP cell cycle and apoptosis, flow cytometry with propidium iodide; format: cell-based, human; details: 100 nM
Procedure: as §1
The Effect of IGF-IR silencing with IGF-IR antisense oligonucleotide (ATL1101) on LNCaP and PC3 cell apoptosis and cell cycle is shown in FIGS. 4A(i)-(ii), 4B, 4C(i)-(ii), and Table 2. Cells were transfected with indicated concentrations of ATL1101, control oligodeoxynucleotide or oligofectamine as in FIGS. 1A(i)-1B(ii). Two days after treatment, cell cycle analysis was determined by flow cytometry using propidium iodide staining. […] In FIGS. 4C(i)-(ii), LNCaP (FIG. 4C (i)) or PC-3 (FIG. 4C (ii)) cells were transfected with indicated concentration of ATL1101 or control oligodeoxynucleotide (ISIS 306064) for two days. Cells were then cultured in FBS media for one day and in serum-free media for one day. Whole cell lysates (30 μg) were subjected to SDS-PAGE and immunoblotted to assess Cyclin D1, Cyclin E, p-RB, total Rb, and p27 protein levels. Oligo, oligofectamine treated cells only.

Ki67 = Ki67 immunohistochemistry in psoriatic skin biopsies after topical treatment; format: in vivo; details: topically applied
Procedure: The present inventors assessed proliferation by Ki67 labeling in paraffin wax-embedded, formalin-fixed, 3 mm diameter, full-thickness psoriatic skin biopsies at the conclusion of the treatment phase of topically applied ATL1101. The tissue was analyzed to assess the effect of the antisense treatments on Ki67 expression using immunohistochemical analysis.

[3] = tested on: insulin receptor IR-A, IR-B, IR-β protein; test: Insulin receptor transcripts and protein in PC3 Ptx-R cells; format: cell-based, human
Source text: The PC3 Ptx-R cells retain sensitivity to ATL1101-induced IGF-IR down regulation at the mRNA and protein level as shown in FIGS. 11A-C. […] ATL1101 and the control oligodeoxynucleotide ISIS 306064 had no effect on either of the alternative spliced isoform transcripts of the insulin receptor, IR-A, IR-B or IR-β protein or vinculin protein levels.

**Q.** For “cgaaggaaacaatactccga (CGAAGGAAACAATACTCCGA; 2'-MOE modified, pattern not given here) [ISIS 175317, 2′-MOE-modified IGF-IR antisense oligonucleotide, also known as ATL1101]”, which “suppression of IGF-IR protein expression” value ([1]; LNCaP cells, 10 nM, two days after second transfection) is on record?
**A.** Its value is over 80%.

**Q.** What about the IGF-IR protein expression ([1]; LNCaP cells, 100 nM) of the same substance?
**A.** The IGF-IR protein expression was “undetectable”.

**Q.** And the “suppression of IGF-IR protein expression” value ([1]; PC3 cells, 10 nM)?
**A.** Its value is about 50%.

**Q.** And the “suppression of IGF-IR protein expression” value ([1]; PC3 cells, 50 nM)?
**A.** The value was over 80%.

**Q.** And the “suppression of IGF-IR protein expression” value ([1]; PC3 cells, 200 nM)?
**A.** Its value is over 90%.

**Q.** And the “suppression of IR-B expression” value [2]?
**A.** The value was under 10%.

**Q.** And the “% of total cells, G0/G1” value (LNCaP cells; CSS condition)?
**A.** Its value is 13.3%.

**Q.** And the “% of total cells, G2/M” value (LNCaP cells; CSS condition)?
**A.** The value was 1.2%.

**Q.** What about the “% of total cells, S” value (LNCaP cells; CSS condition) of the same substance?
**A.** The value was 1.2%.

**Q.** What about the “% of total cells, Sub G0/G1” value (LNCaP cells; CSS condition) of the same substance?
**A.** The value was 84.3%.

**Q.** What about the “subG0/G1 + G0/G1:S + G2/M” value (LNCaP cells; CSS condition) of the same substance?
**A.** Its value is 40.7***.

**Q.** And the “% of total cells, G0/G1” value (LNCaP cells; FBS condition)?
**A.** Its value is 32.8%.

**Q.** What about the “% of total cells, G2/M” value (LNCaP cells; FBS condition) of the same substance?
**A.** The value was 2.8%.

**Q.** And the “% of total cells, S” value (LNCaP cells; FBS condition)?
**A.** The value was 3.4%.

**Q.** What about the “subG0/G1 + G0/G1:S + G2/M” value (LNCaP cells; FBS condition) of the same substance?
**A.** Its value is 15.1**.

**Q.** What about the “% of total cells, Sub G0/G1” value (LNCaP cells; FBS condition, two days after treatment) of the same substance?
**A.** The value was 61%.

**Q.** And the “Ki67 by length (mm) and area (mm squared) vs. mismatch control” value (Ki67)?
**A.** Its value is “Statistically significant reduction”.

**Q.** And the “insulin receptor IR-A, IR-B transcripts or IR-β protein levels” value [3]?
**A.** The value was “no effect”.
